In ChEMBL document CHEMBL1201862, “PubChem BioAssay data set” (2004):
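Each compound was tested at five concentrations against cells in 96-well plates for 48 hours. GI50 = concentration required for 50% inhibition of growth.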 The source made the active and inactive calls. Cut-off read from the data, not from the text of the source: active = GI50 up to about 1.1 µM and inactive = higher.

Experiments:
Assay in all cases: NCI anticancer screen, dose series, 48 h
ACHN = system: ACHN
MCF7 = system: MCF7
MDA-N = system: MDA-N
SN12C = system: SN12C
OVCAR-4 = system: OVCAR-4
PC-3 = system: PC-3
HOP-62 = system: HOP-62
OVCAR-8 = system: OVCAR-8
HCT-116 = system: HCT-116
SR = system: SR
DU-145 = system: DU-145
SF-539 = system: SF-539
K562 = system: K562
EKVX = system: EKVX
NCI/ADR-RES = system: NCI/ADR-RES
RXF 393 = system: RXF 393
OVCAR-5 = system: OVCAR-5
SW-620 = system: SW-620
A498 = system: A498

Measured: GI50

Nc1ncc2c(n1)-c1ccccc1OC2N1CCOCC1 (stereo not drawn)
inactive: ACHN > 100 µM | MCF7 > 100 µM | MDA-N > 100 µM | SN12C > 100 µM | OVCAR-4 > 100 µM | PC-3 > 100 µM | HOP-62 > 100 µM | OVCAR-8 > 100 µM | HCT-116 > 100 µM | SR 52.7 µM | DU-145 > 100 µM | SF-539 > 100 µM | K562 > 100 µM | EKVX 85.9 µM | NCI/ADR-RES > 100 µM | RXF 393 > 100 µM | OVCAR-5 > 100 µM | SW-620 > 100 µM

CC[C@]1(Cc2ccc(OC)c(OC)c2)CN(S(=O)(=O)c2ccc(C)cc2)C[C@@H]1OC(C)=O
inactive: A498 > 100 µM | ACHN > 100 µM | MCF7 > 100 µM | MDA-N > 100 µM | OVCAR-4 > 100 µM | PC-3 75.7 µM | HOP-62 33 µM | OVCAR-8 58.7 µM | SR > 100 µM | DU-145 > 100 µM | SF-539 69.5 µM | K562 > 100 µM | EKVX > 100 µM | NCI/ADR-RES > 100 µM | RXF 393 > 100 µM | OVCAR-5 > 100 µM | SW-620 > 100 µM

c1ccc2cc3c(NC4=NCCO4)cccc3cc2c1
inactive: A498 67.6 µM | ACHN 68.1 µM | MCF7 68.7 µM | MDA-N 1.79 µM | SN12C 58.5 µM | OVCAR-4 35.6 µM | PC-3 45.1 µM | HOP-62 > 100 µM | OVCAR-8 48.5 µM | HCT-116 50 µM | SR 36 µM | DU-145 78.7 µM | SF-539 97.5 µM | K562 37.2 µM | EKVX 76.2 µM | NCI/ADR-RES 75.2 µM | RXF 393 > 100 µM | OVCAR-5 > 100 µM | SW-620 > 100 µM

COc1ccc(C2=NN(C(=O)c3ccc(Cl)cc3)C(O)(c3cc(F)c(Cl)cc3Cl)C2)cc1OC (stereo not drawn)
inactive: A498 5.2 µM | ACHN 14.9 µM | MCF7 4.61 µM | MDA-N 15.5 µM | OVCAR-4 18 µM | PC-3 6.44 µM | HOP-62 99.8 µM | OVCAR-8 58.1 µM | HCT-116 6.14 µM | DU-145 8.51 µM | SF-539 > 100 µM | K562 5.82 µM | EKVX 27.7 µM | NCI/ADR-RES 9.77 µM | RXF 393 6.17 µM | OVCAR-5 > 100 µM | SW-620 6.97 µM

CCN(CC)c1cc2c3c(c1)CCCN3CCC2
inactive: A498 > 10 µM | ACHN > 10 µM | MCF7 > 10 µM | MDA-N > 10 µM | SN12C > 10 µM | OVCAR-4 > 10 µM | PC-3 > 10 µM | HOP-62 > 10 µM | OVCAR-8 > 10 µM | HCT-116 > 10 µM | SR > 10 µM | DU-145 > 10 µM | SF-539 > 10 µM | K562 > 10 µM | EKVX > 10 µM | NCI/ADR-RES > 10 µM | RXF 393 > 10 µM | SW-620 > 10 µM

C=CCCc1cc(OC)ccc1CN(C)C(C)(C)CO
inactive: A498 > 100 µM | ACHN > 100 µM | SN12C > 100 µM | OVCAR-4 > 100 µM | HOP-62 > 100 µM | OVCAR-8 > 100 µM | HCT-116 > 100 µM | SR > 100 µM | SF-539 > 100 µM | K562 > 100 µM | EKVX > 100 µM | RXF 393 > 100 µM | OVCAR-5 > 100 µM | SW-620 > 100 µM
